Measured values from publication PMC12951562, “SH2scan: Mapping SH2 Domain-Ligand Binding Selectivity for Inhibitors and Degraders” (Journal of Medicinal Chemistry, 2026).
Where “and” joins values, the source holds several entries; their conditions need not be identical. Identical values can stand only once. Like-named read-outs stand apart in the source and are kept apart here. Non-standard residues stand in square brackets, D forms with d. Residues, ends and D or L forms follow the SMILES beside them. *: point of attachment. pY = N[C@@H](Cc1ccc(OP(=O)(O)O)cc1)C(=O)O; Caffeoyl = O=C(/C=C/c1ccc(O)c(O)c1)*

Columns and labels:
Experiment in all cases: biochemical
Type in all cases: binding
[1] = target: T1, SRC (Homo sapiens, UniProt P12931); conditions: for remaining activity at 10 µM: read-out: percent of DMSO vehicle control
T1 construct: made in house; host or cells: HEK293 (transient transfection), unpurified extract

[2] = target: T2, TEC (Homo sapiens, UniProt P42680); conditions: for percent of DMSO vehicle control at 10 µM / remaining activity at 10 µM: read-out: percent of DMSO vehicle control
T2 construct: made in house; host or cells: HEK293 (transient transfection), unpurified extract
T2 sequence (P42680 1-631): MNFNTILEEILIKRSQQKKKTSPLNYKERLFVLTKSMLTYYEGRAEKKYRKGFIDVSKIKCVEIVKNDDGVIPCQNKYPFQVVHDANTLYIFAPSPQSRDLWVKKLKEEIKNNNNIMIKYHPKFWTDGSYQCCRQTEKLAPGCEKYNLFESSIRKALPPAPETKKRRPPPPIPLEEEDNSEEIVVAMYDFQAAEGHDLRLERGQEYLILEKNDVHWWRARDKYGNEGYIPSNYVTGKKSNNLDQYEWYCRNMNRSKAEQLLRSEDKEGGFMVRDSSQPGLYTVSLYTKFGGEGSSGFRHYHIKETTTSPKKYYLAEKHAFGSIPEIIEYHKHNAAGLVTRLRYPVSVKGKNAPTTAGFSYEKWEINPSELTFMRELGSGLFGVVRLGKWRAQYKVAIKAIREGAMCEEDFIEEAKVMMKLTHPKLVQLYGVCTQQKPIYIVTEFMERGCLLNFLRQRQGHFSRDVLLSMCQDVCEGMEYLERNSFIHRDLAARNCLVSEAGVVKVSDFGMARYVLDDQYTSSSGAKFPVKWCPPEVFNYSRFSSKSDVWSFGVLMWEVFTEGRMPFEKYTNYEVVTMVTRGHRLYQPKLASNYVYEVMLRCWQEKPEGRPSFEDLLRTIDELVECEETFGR

[3] = target: T3, FYN (Homo sapiens, UniProt P06241); conditions: for percent of DMSO vehicle control at 10 µM / remaining activity at 10 µM: read-out: percent of DMSO vehicle control
T3 construct: the DNA-tagged SH2 domain concentrations used in this study were <0.1 nM; made in house; host or cells: HEK293 (transient transfection; unpurified extract)

[4] = target: T4, PIK3R2(SH2dom.C-term.) (Homo sapiens, UniProt O00459); conditions: for KD / Kd: dose-response; for remaining activity at 10 µM: read-out: percent of DMSO vehicle control; for Kd: read-out: KD
T4 construct: SH2dom.C-term. denotes SH2 domain closest to C-terminus of protein; made in house; host or cells: HEK293 (transient transfection, unpurified extract)
T4 sequence (O00459 622-716 limits assumed): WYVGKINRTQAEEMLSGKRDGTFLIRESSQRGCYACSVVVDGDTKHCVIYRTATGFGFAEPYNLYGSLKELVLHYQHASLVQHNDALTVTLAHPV

[5] = target: T5, BRK (Homo sapiens, UniProt Q13882); conditions: for remaining activity at 10 µM: read-out: percent of DMSO vehicle control; for KD: dose-response
T5 construct: the DNA-tagged SH2 domain concentrations used in this study were <0.1 nM; made in house; host or cells: HEK293 (transient transfection; unpurified extract)

[6] = target: T6, APS (SH2B2) (Homo sapiens, UniProt O14492); conditions: for percent of DMSO vehicle control at 10 µM / remaining activity at 10 µM: read-out: percent of DMSO vehicle control
T6 construct: the DNA-tagged SH2 domain concentrations used in this study were <0.1 nM; made in house; host or cells: HEK293 (transient transfection; unpurified extract)

[7] = target: T7, SLAP2 (Homo sapiens, UniProt Q9H6Q3); conditions: for remaining activity at 10 µM: read-out: percent of DMSO vehicle control
T7 construct: made in house; host or cells: HEK293 (transient transfection), unpurified extract
T7 sequence (Q9H6Q3 1-261): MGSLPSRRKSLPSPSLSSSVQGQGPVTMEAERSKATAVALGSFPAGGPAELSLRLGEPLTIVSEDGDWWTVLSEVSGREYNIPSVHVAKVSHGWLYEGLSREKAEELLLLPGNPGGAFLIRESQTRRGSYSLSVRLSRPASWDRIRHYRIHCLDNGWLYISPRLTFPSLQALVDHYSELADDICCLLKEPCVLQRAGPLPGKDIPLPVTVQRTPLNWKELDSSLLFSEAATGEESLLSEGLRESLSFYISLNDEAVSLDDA

[8] = target: T8, STAT4 (Homo sapiens, UniProt Q14765); conditions: for percent of DMSO vehicle control: primary screen, 10 μM
T8 construct: made in house; host or cells: HEK293 (transient transfection), unpurified extract
T8 sequence (Q14765 1-748): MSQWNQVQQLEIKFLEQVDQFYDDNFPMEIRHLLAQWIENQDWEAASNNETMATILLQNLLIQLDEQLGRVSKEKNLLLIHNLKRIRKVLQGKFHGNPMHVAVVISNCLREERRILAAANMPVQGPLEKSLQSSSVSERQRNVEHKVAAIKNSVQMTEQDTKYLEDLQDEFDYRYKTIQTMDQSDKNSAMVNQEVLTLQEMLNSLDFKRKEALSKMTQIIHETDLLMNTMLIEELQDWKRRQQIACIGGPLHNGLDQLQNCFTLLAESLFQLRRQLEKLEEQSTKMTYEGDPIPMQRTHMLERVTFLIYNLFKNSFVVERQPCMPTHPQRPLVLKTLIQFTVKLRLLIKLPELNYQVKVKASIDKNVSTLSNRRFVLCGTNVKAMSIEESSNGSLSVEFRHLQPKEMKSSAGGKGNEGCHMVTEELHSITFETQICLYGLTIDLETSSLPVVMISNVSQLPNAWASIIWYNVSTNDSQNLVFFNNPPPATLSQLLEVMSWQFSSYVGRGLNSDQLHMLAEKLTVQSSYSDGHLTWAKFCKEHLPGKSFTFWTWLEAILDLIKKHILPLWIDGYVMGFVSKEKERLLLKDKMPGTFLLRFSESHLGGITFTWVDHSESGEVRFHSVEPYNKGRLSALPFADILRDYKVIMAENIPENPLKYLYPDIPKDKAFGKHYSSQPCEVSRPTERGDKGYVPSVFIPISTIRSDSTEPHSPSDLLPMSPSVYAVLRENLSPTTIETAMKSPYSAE

T1 sequence (P12931 whole entry): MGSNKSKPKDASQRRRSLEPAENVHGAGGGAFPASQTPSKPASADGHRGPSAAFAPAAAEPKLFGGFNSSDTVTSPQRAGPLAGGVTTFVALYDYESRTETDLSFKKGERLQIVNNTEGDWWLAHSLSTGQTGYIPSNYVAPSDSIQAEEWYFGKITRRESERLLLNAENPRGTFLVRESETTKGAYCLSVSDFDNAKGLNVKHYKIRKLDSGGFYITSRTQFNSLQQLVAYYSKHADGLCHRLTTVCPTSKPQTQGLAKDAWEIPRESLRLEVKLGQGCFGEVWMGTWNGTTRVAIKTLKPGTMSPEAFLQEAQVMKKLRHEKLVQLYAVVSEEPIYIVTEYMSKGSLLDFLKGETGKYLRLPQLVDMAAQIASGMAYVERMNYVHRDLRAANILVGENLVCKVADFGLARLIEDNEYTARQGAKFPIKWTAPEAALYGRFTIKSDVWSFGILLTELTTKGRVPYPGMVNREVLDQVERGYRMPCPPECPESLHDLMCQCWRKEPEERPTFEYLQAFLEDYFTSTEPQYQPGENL
T3 sequence (P06241 149-246 limits assumed): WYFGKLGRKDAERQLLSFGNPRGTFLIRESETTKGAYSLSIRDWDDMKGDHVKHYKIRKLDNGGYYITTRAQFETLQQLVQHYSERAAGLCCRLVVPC
T5 sequence (Q13882 78-170 limits assumed): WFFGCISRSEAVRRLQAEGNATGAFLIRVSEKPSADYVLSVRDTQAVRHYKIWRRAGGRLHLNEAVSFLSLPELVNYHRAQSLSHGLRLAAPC
T6 sequence (O14492 417-515 limits assumed): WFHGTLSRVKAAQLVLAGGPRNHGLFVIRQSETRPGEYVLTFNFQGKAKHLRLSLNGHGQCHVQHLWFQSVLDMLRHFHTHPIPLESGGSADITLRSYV

Row | SMILES | percent of DMSO vehicle control [8] [%] | remaining activity at 10 µM [1] [%] | percent of DMSO vehicle control at 10 µM [2] [%] | percent of DMSO vehicle control at 10 µM [3] [%] | KD [4] | remaining activity at 10 µM [4] [%] | remaining activity at 10 µM [5] [%] | percent of DMSO vehicle control at 10 µM [6] [%] | remaining activity at 10 µM [7] [%] | remaining activity at 10 µM ([1]; primary screen, 10 μM) [%] | remaining activity at 10 µM ([2]; primary screen, 10 μM) [%] | remaining activity at 10 µM ([3]; primary screen, 10 μM) [%] | remaining activity at 10 µM ([4]; primary screen, 10 μM) [%] | remaining activity at 10 µM ([5]; primary screen, 10 μM) [%] | remaining activity at 10 µM ([6]; primary screen, 10 μM) [%] | remaining activity at 10 µM ([7]; primary screen, 10 μM) [%] | KD [5] | other results
1 | CC[C@H](C)[C@H](NC(=O)[C@H](CCC(=O)O)NC(=O)[C@H](CCC(=O)O)NC(=O)[C@H](Cc1ccc(OP(=O)(O)O)cc1)NC(C)=O)C(=O)N[C@@H](CCC(=O)O)C(N)=O [Ac-pYEEIE-NH2] (Ac-[pY]EEIE-NH2) | 106.6 |  |  |  |  |  |  |  |  |  |  |  |  |  |  |  |  | percent of DMSO vehicle control ([1]; primary screen, 10 μM): 68.6±4.6%; percent of DMSO vehicle control ([2]; primary screen, 10 μM): 119.3%; Kd [3]: 3.3 µM; percent of DMSO vehicle control ([3]; primary screen, 10 μM): 21.2±2.5%; percent of DMSO vehicle control ([4]; primary screen, 10 μM): 49.5±7.1%; percent of DMSO vehicle control ([5]; primary screen, 10 μM): 101.4%; percent of DMSO vehicle control ([6]; primary screen, 10 μM): 121.8%; percent of DMSO vehicle control ([7]; primary screen, 10 μM): 202.8%
2 | CC(=O)N[C@@H](Cc1ccc(CP(=O)(O)O)cc1)C(=O)NC1(C(=O)N[C@@H](CC(N)=O)C(=O)NCCCc2c(O)ccc3ccccc23)CCCCC1 [CGP78850] | 91.4±14.0 | 99.2 ± 4.1 | 126.5 ± 0.2 | 53.7 ± 4.6 | No Hit | 0.4 ± 0.4 | 117 ± 12.5 | 128 ± 7.6 | 91.4 ± 15.3 |  |  |  |  |  |  |  |  | 
3 | CC[C@H](C)[C@H](NC(=O)[C@H](CCC(=O)O)NC(=O)[C@H](CCC(=O)O)NC(=O)[C@H](Cc1ccc(OP(=O)(O)O)cc1)NC(=O)/C=C/c1ccc(O)c(O)c1)C(=O)N[C@@H](CCC(=O)O)C(=O)O [Caffeic acid-pYEEIE] (Caffeoyl-[pY]EEIE-OH) | 8.8±0.4 | 0 | 0.1 | 0 | No Hit | 0.3 ± 0.9 | 0 | 2.2 ± 0.3 | 5.3 ± 3.8 |  |  |  |  |  |  |  |  | Kd [1]: 0.0048 ± 0.0013 µM; Kd [2]: 0.039 ± 0.0078 µM; Kd [3]: 0.00053 µM; Kd [5]: 0.024 ± 0.0039 µM; Kd [6]: 2.3 ± 0.45 µM; Kd ([7]; KD, dose-response): 0.31 µM and 0.314 µM; Kd [8]: 4.4 ± 0.37 µM
4 | O=C(CCl)Nc1cccc(CNC(=O)[C@H](Cc2ccc(OP(=O)(O)O)cc2)NC(=O)Cc2ccc(F)cc2)c1 [MN551] | 22±0.8 |  |  |  | No Hit |  |  |  |  | 70.2 ± 6.8 | 120 | 83.2 ± 0.4 | 30.3 | 4.7 ± 0.7 | 94.2 ± 3.2 | 81.6 ± 2.1 |  | KD ([8]; dose-response): No Hit
5 | NC(=O)CC[C@H](NC(=O)[C@@H]1CC[C@@H]2CCN(C(=O)CCCCCC#Cc3cccc4c3CN(C3CCC(=O)NC3=O)C4=O)C[C@H](NC(=O)c3cc4cc(C(F)(F)P(=O)(O)O)ccc4[nH]3)C(=O)N21)C(=O)NC(c1ccccc1)c1ccccc1 (stereo partly shown) [SD-36] | 1.1±0.2 | 81.4 ± 1.5 | 121 ± 3 | 106 | No Hit | 18.5 ± 3.9 | 76.9 ± 3.5 | 140 ± 6.1 | 95.7 ± 9.9 |  |  |  |  |  |  |  |  | Kd ([8]; dose-response): 0.12 ± 0.11 µM
6 | CC(=O)N1CC[C@H]2CC[C@@H](C(=O)N[C@@H](CCC(N)=O)C(=O)NC(c3ccccc3)c3ccccc3)N2C(=O)[C@@H](NC(=O)c2cc3cc(C(F)(F)P(=O)(O)O)ccc3[nH]2)C1 [SI-109] | 7.3±0.1 | 117 | 135 | 97.3 |  | 120 | 124 | 130 | 121 |  |  |  |  |  |  |  |  | Kd [8]: 0.24 ± 0.106 µM
7 | C/C(=C\C(=O)N[C@H](C(=O)N1CCC[C@H]1C(=O)N(c1ccccc1)c1ccc(I)cc1)C(C)(C)C)c1ccc(OP(=O)(O)O)cc1 [STAT6-IN-1] | 0.0±0.0 |  |  |  |  |  |  |  |  | 53.3 ± 8.1 | 75.1 ± 3.7 | 48.2 ± 2.1 | 0.2 ± 0.1 | 3 ± 0.4 | 45.3 ± 5.2 | 55.8 ± 2.8 | No Hit | Kd [4]: 1 ± 0.078 µM; Kd ([8]; dose-response, read-out: KD): 0.22 ± 0.067 µM
8 | CC(C)(C)[C@H](NC(=O)/C=C/c1ccc(OP(=O)(O)O)cc1)C(=O)N1CCC[C@H]1C(=O)N(c1ccccc1)c1ccc(I)cc1 [STAT6-IN-3] | 0.2±0.3 |  |  |  |  |  |  |  |  | 67 ± 21 | 136 ± 22.9 | 51.8 ± 33.2 | 6.1 ± 1.6 | 4.1 ± 47.5 | 66.4 ± 17.9 | 92.1 ± 16.6 | No Hit | Kd [4]: 0.49 ± 0.08 µM; Kd ([8]; dose-response, read-out: KD): 0.52 ± 0.27 µM
9 | O=C(COc1ccc2cc(C(=O)Nc3ccccc3)ccc2c1)NCc1ccc(OP(=O)(O)O)c(OP(=O)(O)O)c1 [Stafib-1] | 57.6±15.3 |  |  |  |  |  |  |  |  | 90.6 ± 5.2 | 159 | 92.1 ± 35.5 | 84.2 ± 34.7 | 5.4 ± 60.2 | 64.6 ± 31.3 | 90.4 ± 6.1 | No Hit | 
